As usually defined, the MIC is the smallest concentration in the dilution series that meets the test's criterion for growth inhibition. A higher MIC goes with a need for much substance.

Values after ≈ are worked out from the molar mass of the structure shown. A value given as a limit tells only on which side of the number the result lay.

We go through three compounds from ChEMBL document CHEMBL1649580, “Mosaic penicillin-binding protein 2 in Neisseria gonorrhoeae isolates collected in 2008 in San Francisco, California” (2009).

Common to all, as to assay type: functional
Assay [1] deals with Neisseria gonorrhoeae. Put plainly: Antibacterial activity against Neisseria gonorrhoeae isolate SM2 expressing SF-A mosaic penA allele by agar dilution method. Background: In agar dilution, organisms are placed on agar that contains the substance at set levels.
The subject of assay [2] is Neisseria gonorrhoeae. Put plainly: Antibacterial activity against Neisseria gonorrhoeae isolate SM1 expressing SF-A mosaic penA allele by agar dilution method.
The subject of assay [3] is Neisseria gonorrhoeae. Briefly: Antibacterial activity against Neisseria gonorrhoeae isolate SM5 expressing SF-B mosaic penA allele by agar dilution method.
The test system of assay [4] is Neisseria gonorrhoeae. Put plainly: Antibacterial activity against Neisseria gonorrhoeae isolate SM3 expressing SF-A mosaic penA allele by agar dilution method.
Assay [5] concerns Neisseria gonorrhoeae. Put plainly: Antibacterial activity against Neisseria gonorrhoeae isolate SW1 expressing nonmosaic penA allele by agar dilution method.
Assay [6] deals with Neisseria gonorrhoeae. Briefly: Antibacterial activity against Neisseria gonorrhoeae isolate SM4 expressing SF-B mosaic penA allele by agar dilution method.
For assay [7], the system named is Neisseria gonorrhoeae. Put plainly: Antibacterial activity against Neisseria gonorrhoeae isolate SW2 expressing nonmosaic penA allele by agar dilution method.

As to `C=CC1=C(C(=O)O)N2C(=O)[C@@H](NC(=O)/C(=N\OCC(=O)O)c3csc(N)n3)[C@H]2SC1` [CEFIXIME], the minimum inhibitory concentration (MIC) is 0.125 µg/mL (≈ 0.276 µM) against Neisseria gonorrhoeae [1]; 0.25 µg/mL (≈ 0.551 µM) against Neisseria gonorrhoeae [2]; 0.015 µg/mL (≈ 0.0331 µM) against Neisseria gonorrhoeae [3]; 0.25 µg/mL (≈ 0.551 µM) against Neisseria gonorrhoeae [4]; no more than 0.008 µg/mL in the assay with Neisseria gonorrhoeae [5]; no more than 0.008 µg/mL against Neisseria gonorrhoeae [6]. The compound also displayed an MIC in the assay on Neisseria gonorrhoeae [7] of 0.015 µg/mL (≈ 0.0331 µM).
`CO/N=C(\C(=O)N[C@@H]1C(=O)N2C(C(=O)O)=C(CSc3nc(=O)c(O)nn3C)CS[C@H]12)c1csc(N)n1` [CEFTRIAXONE]: the MIC was 0.06 µg/mL (≈ 0.108 µM) against Neisseria gonorrhoeae [1]; 0.06 µg/mL (≈ 0.108 µM) with Neisseria gonorrhoeae [2]; no more than 0.008 µg/mL in the assay with Neisseria gonorrhoeae [3]; 0.03 µg/mL (≈ 0.0541 µM) in the assay on Neisseria gonorrhoeae [4]; no more than 0.008 µg/mL against Neisseria gonorrhoeae [5]; no more than 0.008 µg/mL in the assay with Neisseria gonorrhoeae [6]. Further, the MIC in the assay on Neisseria gonorrhoeae [7] was no more than 0.008 µg/mL.
As for `COCC1=C(C(=O)O)N2C(=O)[C@@H](NC(=O)/C(=N\OC)c3csc(N)n3)[C@H]2SC1` [CEFPODOXIME], the MIC was determined as 0.5 µg/mL (≈ 1.17 µM) in the assay on Neisseria gonorrhoeae [1]; 1 µg/mL (≈ 2.34 µM) in the assay with Neisseria gonorrhoeae [2]; 0.25 µg/mL (≈ 0.585 µM) against Neisseria gonorrhoeae [3]; 1 µg/mL (≈ 2.34 µM) in the assay with Neisseria gonorrhoeae [4]; 0.015 µg/mL (≈ 0.0351 µM) against Neisseria gonorrhoeae [5]; 0.06 µg/mL (≈ 0.14 µM) against Neisseria gonorrhoeae [6]. Also, in the assay on Neisseria gonorrhoeae [7], the MIC came to 0.03 µg/mL (≈ 0.0702 µM).
